Reference: EP4775577A1, “RAS INHIBITOR” (Tyligand Bioscience (Shanghai) Limited, priority 2023, dated 2025)
Where a name gives a salt, the structure may show the parent alone. Read-outs that look alike come from different tables or passages of the source.

Legend:
[1] = tested on: KRAS G12V mutant NCI-H727 cells; assay: Proliferation inhibition of NCI-H727 cells, 3D CellTiter-Glo assay (Method B); format: cell-based, human; conditions: Homo sapiens, NCI-H727, 120 h, 3D culture with 0.65% methylcellulose, 5 days, CTG
Description: NCI-H727 cells (Nanjing Kebai Biotechnology Co., Ltd., catalog number CBP60182, adherent, culture medium RPMI-1640+10%FBS (GIBCO, Cat#10091-148)) were cultured at 37°C, 5% CO2, and 95% humidity.
3D cell viability assay: Cells in the logarithmic growth phase were harvested and counted using a platelet counter. Cell viability was assessed using the trypan blue exclusion method to ensure a viability of over 90%. The 3D cell culture medium was prepared by adding 1% MC (methylcellulose, Sigma, Cat#M0512) to RPMI-1640 medium and 10% FBS. The cell concentration was adjusted to approximately 25,000 cells/mL using the 3D medium, and the methylcellulose (MC) content was set to 0.65%. Then, 80 µL of cell suspension was added to each 96-well clear, flat-bottomed, black-walled plate (Greiner, Cat# 655096). The cells in the 96-well plates were cultured overnight at 37°C and 5% CO2.
Drug preparation for IC50 assay: A 5-fold drug solution was prepared using culture medium. 20 µL of the drug solution was added to each well of a 96-well plate seeded with cells to achieve a working concentration of up to 10 µM, with a 3× dilution, and 9 concentrations. 2 replicate wells for each drug concentration were set. The cells in the drug-treated 96-well plates were cultured at 37°C and 5% CO2 for additional 5 days, then CTG assay (CellTiter-Glo® Luminescent Cell Viability Assay (Promega, Cat#G7573)) were performed.
The cell plate was equilibrated to room temperature for 30 minutes and the CTG reagent was thawed. 50 µL of CTG solution was added to each well for detection and the plate was shaken on an orbital shaker for 5 minutes to lyse the cells. The cell plate was then placed at room temperature for 25 minutes to stabilize the cryo-luminescence signal, and the cryo-luminescence value was read (EnVision® multi-plate reader, PerkinElmer#2105).
(§1) Data was analyzed using GraphPad Prism software. The dose-response-inhibition equation was used to fit the data to obtain the dose-response curve, and the IC50 value (nM) was calculated accordingly. [formula]

[2] = tested on: KRAS G12D mutant AGS cells; assay: Proliferation inhibition of AGS cells, CellTiter-Glo assay; format: cell-based, human; conditions: Homo sapiens, AGS, 72 h, 3 days, CTG; read-out: AGS IC50/nM
Description: AGS cells (Nanjing Kebai Biotechnology Co., Ltd., catalog number CBP60476, adherent, culture medium (F12K Nutrient Mixture+10% FBS (GIBCO, Cat#10091-148) were cultured at 37°C, 5% CO2, and 95% humidity at a density of 1500 cells/well. Cells in the logarithmic growth phase were harvested and counted using a Countstar automated cell counter based on the classic trypan blue staining method to ensure cell viability was above 90%. The cell concentration was adjusted, and 80 µL of cell suspension was added to each 96-well clear flat-bottomed, black-walled plate (Greiner, Cat# 655090). The cells in the 96-well plates were then cultured at 37°C and 5% CO2.
Drug preparation for IC50 assay: A 5-fold drug solution was prepared using culture medium. 20 µL of the drug solution was added to each well of a 96-well plate seeded with cells to achieve a working concentration of up to 10 µM, with a 3 × dilution, and a total of 9 concentrations. 2 replicate wells for each drug concentration were set. The cells in the drug-treated 96-well plates were cultured at 37°C and 5% CO2 for additional 3 days and then CTG assay were performed.
The cell plate was equilibrated to room temperature for 30 minutes and the CTG reagent (CellTiter-Glo® Luminescent Cell Viability Assay (Promega, Cat# G7573)) was thawed. 50 µL of CTG solution was added to each well and the plate was shaken on an orbital shaker for 2 minutes to lyse the cells. The cell plate was placed at room temperature for 10 minutes to stabilize the cryo-luminescence signal and the cryo-luminescence value was read (EnVision® Multifunctional microplate reader, PerkinElmer #2105).
as §1

[3] = Method B, read-out: NCI-H727 IC50/nM

Compound | IC50 [1, 3] [nM] | IC50 [2] [nM] | IC50 ([1]; read-out: NCI-H727 IC50/nM, Method B) [nM]
CN1CC/C(=C\F)[C@](C)(COc2nc(N3CCC[C@@](C)(O)C3)c3cc(C(F)(F)F)c(-c4cccc5sc(N)c(C#N)c45)c(F)c3n2)C1 (atropisomer, axis not shown) [Example 4A, (R)-2-amino-4-(8-fluoro-2-(((S,E)-4-(fluoromethylene)-1,3-dimethylpiperidine-3-yl)methoxy)-4-((R)-3-hydroxy-3-methylpiperidine-1-yl)-6-(trifluoromethyl)quinazoline-7-yl)benzo[b]thiophene-3-carbonitrile] | 66.9 | 148 | –
CNC(=O)c1cc2n(n1)CCCN(c1nc(OC[C@]3(C)CN(C)CC/C3=C\F)nc3c(F)c(-c4cccc5sc(N)c(C#N)c45)c(C(F)(F)F)cc13)C2 [Example 118] | 35.5 | 12.8 | –
CN1CC/C(=C\F)[C@](C)(COc2nc(N3CCCn4nc(C(=O)N(C)C)cc4C3)c3cc(/C=C/F)c(-c4cccc5sc(N)c(C#N)c45)c(F)c3n2)C1 [Example 111] | 54.7 | 25.6 | –
[2H]C([2H])([2H])N1CCC(=CF)C(C)(COc2nc(N3CCCn4nc(C(=O)N(C)C)c(Cl)c4C3)c3cc(Cl)c(-c4c(F)ccc5sc(N)c(C#N)c45)c(Cl)c3n2)C1 (stereo not shown) [Example 195] | 2.5 | 2.5 | –
Cc1c(-c2ncc(F)c3sc(N)c(C#N)c23)c(Cl)cc2c(N3Cc4cc(C(=O)N(C)C)nn4CC[C@@H]3C)nc(OC[C@]3(C)CN(C)CC/C3=C\F)nc12 [Example 171A] | 4.1 | 4.7 | –
CCN1CC/C(=C\F)[C@](C)(COc2nc(N3Cc4c(COC)c(C(=O)N(C)C)nn4CC[C@@H]3C)c3cc(Cl)c(-c4ncc(F)c5sc(N)c(C#N)c45)c(C)c3n2)C1 (single isomer, unassigned) [Example 238A] | 6.5 | 11.5 | –
CCN1CC/C(=C\F)[C@](C)(COc2nc(N3Cc4c(COC)c(C(=O)N(C)C)nn4CC[C@@H]3C)c3cc(Cl)c(-c4c(F)ccc5sc(N)c(C#N)c45)c(OC)c3n2)C1 [Example 273A] | 26.6 | 40.6 | –
[2H]C([2H])([2H])N1CCC(=CF)C(C)(COc2nc(N3Cc4cc(C(=O)N5CCOCC5)nn4CCC3C)c3cc(CC)c(-c4c(F)ccc5sc(N)c(C#N)c45)c(F)c3n2)C1 (stereo not shown) [Example 263A] | 2.5 | 2.5 | –
CN1CC/C(=C\F)[C@](C)(COc2nc(N3CCOC[C@@](C)(O)C3)c3cc(Cl)c(-c4c(F)ccc5sc(N)c(C#N)c45)c(F)c3n2)C1 (atropisomer, axis not shown; (Ra)) [Example 85A, (Ra)-2-amino-4-(6-chloro-8-fluoro-2-(((S,E)-4-(fluoromethylene)-1,3-dimethylpiperidine-3-yl)methoxy)-4-((S)-6-hydroxy-6-methyl-1,4-oxazacycloheptane-4-yl)quinazoline-7-yl)-5-fluorobenzo[b]thiophene-3-carbonitrile formate·formic acid salt] | 17.4 | 22.7 | –
[2H]C([2H])([2H])N1CC[C@H](C(F)F)[C@](C)(COc2nc(N3CCOC[C@@](C)(O)C3)c3cc(Cl)c(-c4cccc5sc(N)c(C#N)c45)c(F)c3n2)C1 [Example 83] | 20.2 | 38.2 | –
[2H]C([2H])([2H])N1CCC(=CF)C(C)(COc2nc(N3CCCn4nc(C(=O)N(C)C)c(Cl)c4C3)c3cc(CC)c(-c4c(F)ccc5sc(N)c(C#N)c45)c(Cl)c3n2)C1 (stereo not shown) [Example 190] | 3.2 | < 1.5 | –
[2H]C([2H])([2H])N1CC/C(=C\F)[C@](C)(COc2nc(N3Cc4cc(C(=O)NC)nn4CC[C@@H]3C)c3cc(CC)c(-c4c(F)ccc5sc(N)c(C#N)c45)c(F)c3n2)C1 [Example 270A] | 4.9 | 3.6 | –
CN1CC/C(=C\F)[C@](C)(COc2nc(N3CCCn4nc(C(=O)N(C)C)cc4C3)c3cc(/C=C\F)c(-c4cccc5sc(N)c(C#N)c45)c(F)c3n2)C1 [Example 112] | 20.2 | 9.9 | –
CCc1cc2c(N3Cc4cc(C(=O)N(C)C)nn4CC[C@@H]3C)nc(OC[C@]3(C)CN(C)CC/C3=C\F)nc2c(F)c1-c1cccc2sc(N)c(C#N)c12 [Example 165A] | 3.6 | 3.2 | –
CCN1CC/C(=C\F)[C@](C)(COc2nc(N3Cc4c(COC)c(C(=O)N(C)C)nn4CC[C@@H]3C)c3cc(C(F)(F)F)c(-c4ncc(F)c5sc(N)c(C#N)c45)c(F)c3n2)C1 (single isomer, unassigned) [Example 230A] | 2.2 | 1.7 | –
CCc1cc2c(N3CCCn4nc(C(=O)N(C)C)c(Cl)c4C3)nc(OC[C@]3(C)CN(C)CC/C3=C\F)nc2c(F)c1-c1ncc(F)c2sc(N)c(C#N)c12 [Example 169A] | 59.9 | 14.6 | –
CCc1cc2c(N3Cc4cc(C(=O)N(C)C)nn4CCC3C)nc(OCC3(C)CN(CC)CCC3=CF)nc2c(C)c1-c1c(F)ccc2sc(N)c(C#N)c12 (stereo not shown) [Example 189] | 2.6 | 2 | –
CN1CC/C(=C\F)[C@](C)(COc2nc(N3CCOC[C@@](C)(O)C3)c3cc(C(F)(F)F)c(-c4ccc(F)c5sc(N)c(C#N)c45)c(F)c3n2)C1 [Example 16] | – | 13.2 | 5
[2H]C([2H])([2H])N1CC/C(=C\F)[C@](C)(COc2nc(N3Cc4cc(C(=O)N(C)CCOC)nn4CC[C@@H]3C)c3cc(CC)c(-c4c(F)ccc5sc(N)c(C#N)c45)c(F)c3n2)C1 (atropisomer, axis not shown) [Example 267A] | 3.9 | 4.4 | –
[2H]C([2H])([2H])N1CC[C@H](C(F)F)[C@](C)(COc2nc(N3CCCn4nc(C(=O)N(C)C)cc4C3)c3cc([N+](=O)[O-])c(-c4cccc5sc(N)c(C#N)c45)c(F)c3n2)C1 [Example 95, 5-(7-(2-Amino-3-cyanobenzo[b]thiophene-4-yl)-2-(((3S,4S)-4-(difluoromethyl)-3-methyl-1-(methyl-d3)piperidine-3-yl)methoxy)-8-fluoro-6-nitroquinazoline-4-yl)-N,N-dimethyl-5,6,7,8-tetrahydro-4H-pyrazolo[1,5-a][1,4]diazepine-2-formamide] | 36.1 | 10.5 | –
CCc1cc2c(N3Cc4cc(C(=O)N(C)C)nn4CC[C@@H]3C)nc(OC[C@]3(C)CN(C)CC/C3=C\F)nc2c(F)c1-c1ccc(F)c2sc(N)c(C#N)c12 [Example 166A] | 7.4 | 4.9 | –
CCc1cc2c(N3Cc4c(Cl)c(C(=O)N(C)C)nn4CCC3C)nc(OCC3(C)CN(C)CCC3=CF)nc2c(F)c1-c1c(F)ccc2sc(N)c(C#N)c12 (stereo not shown) [Example 194] | < 1.5 | < 1.5 | –
CCN1CCC(=CF)C(C)(COc2nc(N3Cc4c(Cl)nnn4CCC3C)c3cc(Cl)c(-c4c(F)ccc5sc(N)c(C#N)c45)c(F)c3n2)C1 (stereo not shown) [Example 259A] | 1.7 | 3.1 | –
CCN1CC[C@H](C(F)F)[C@](C)(COc2nc(N3Cc4c(COC)c(C(=O)N(C)C)nn4CC[C@@H]3C)c3cc(C(F)(F)F)c(-c4ncc(F)c5sc(N)c(C#N)c45)c(F)c3n2)C1 [Example 272A] | 10.4 | 12.5 | –
CCc1cc2c(N3Cc4cc(C(=O)N(C)C)nn4CC[C@@H]3C)nc(OC[C@]3(C)CN(C)CC/C3=C\F)nc2c(F)c1-c1c(C)ccc2[nH]ncc12 (single isomer, unassigned) [Example 172A] | 419 | 199 | –
CN1CC/C(=C\F)[C@](C)(COc2nc(N3CCCn4nc(C(=O)N(C)C)c(N)c4C3)c3cc(C(F)(F)F)c(-c4cccc5sc(N)c(C#N)c45)c(F)c3n2)C1 [Example 120] | 29.8 | 10.3 | –
